Earlier results on 1 compound are cited in US9808460B2, “Controlled release auris sensory cell modulator compositions and methods for the treatment of otic disorders” (Otonomy, Inc., priority 2008, dated 2017).

The test system of this data set is ototoxic effects of cisplatin. The note with it: in certain instances.

As for `NCCCNCCSP(=O)(O)O` [Amifostine], the “doses needed to protect against or ameliorate the ototoxic effects of cisplatin” value was not below 40 mg/kg.
